How the values were obtained:
Assay in all cases: 5-HT receptor-dependent induction of GCamP6s fluorescence in HEK293 cells
Type in all cases: cell-based
5-HT2C receptor = molecular target: T1, 5-HT2C receptor (Homo sapiens, UniProt P28335); conditions: 1 µM; GCamP6s fluorescence normalized to 1 µM 5-HT
T1 construct: expressed in transfected cells
T1 sequence (P28335 33-458): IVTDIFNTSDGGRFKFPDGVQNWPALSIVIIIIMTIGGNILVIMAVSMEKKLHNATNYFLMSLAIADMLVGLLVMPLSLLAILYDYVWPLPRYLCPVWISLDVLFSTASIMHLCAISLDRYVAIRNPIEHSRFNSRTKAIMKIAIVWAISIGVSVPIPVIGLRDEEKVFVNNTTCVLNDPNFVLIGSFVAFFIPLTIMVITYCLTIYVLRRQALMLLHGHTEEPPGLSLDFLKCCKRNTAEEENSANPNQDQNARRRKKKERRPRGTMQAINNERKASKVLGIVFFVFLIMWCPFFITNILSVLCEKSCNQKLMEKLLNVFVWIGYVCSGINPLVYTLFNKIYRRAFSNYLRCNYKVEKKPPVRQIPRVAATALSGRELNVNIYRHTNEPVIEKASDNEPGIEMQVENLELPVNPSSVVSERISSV
Description: (§1) All cloning steps were performed using NEB Builder (New England Biolabs, Frankfurt/Main, Germany). GCamP6s was cloned into pcDNA3.1. GCaMP is a genetically encoded calcium indicator which allows measurement of calcium flux. To allow for visual inspection of co-expressed 5-HT2 receptors, the enhanced cyan fluorescent protein (eCFP) was added to the C-Terminus of the 5-HT2 receptors. The resulting constructs were then cloned into pcDNA4-TO to allow tetracycline dependent expression.
(§2) In a first step, HEK293 cells were transfected with pcDNA6-TR and cells stably expressing the Tet-repressor were selected by the addition of blasticidin (60 µg ml^−1). In a second step, one of the resulting clones was transfected with one of the 5-HT2 receptor constructs and stable clones were selected by the addition of zeocin (150 µg ml^−1). Suitable clones were selected by visual inspection of the eCFP signal at the plasma membrane. In a last step, the eCFP positive clones were transfected with GCamp6s, and stable clones were selected using G418 (250 µg ml^−1). The resulting clones were sorted via FACS to isolate GCaMP6s (green fluorescent protein) positive cells and the resulting polyclonal cell lines were used for further experiments. Cells were maintained in DMEM supplemented with 2% fetal bovine serum, blasticidin, zeocin, and G418 at concentrations described above. To induce receptor expression, tetracycline (1 µg ml^−1) was added to the medium 18–24 h prior to the experiment.
(§3) Imaging experiments were performed at room temperature (22–27 °C). Medium was exchanged for KHB 10 min prior to the experiment and cells were continuously superfused with KHB, using a fast superfusion device (DAD12, ALA Scientific, Farmingdale, NY, USA). Test drugs (0.1, 1, 10 µM) or 5-HT (1 µM) were applied for 30 s, interleaved by KHB superfusion for 300 s. GCamp6s fluorescence was monitored using an inverted microscope (Nikon Eclipse Ti2) equipped with a Nikon ×40 WI (NA 1.25) objective (Nikon Europe, Amsterdam, Netherlands). Fluorescence was excited using a 470 nm LED (Coolled pe4000, Coolled, Andover, NY, USA). Excitation light was filtered through a 480/20 nm bandpass filter and reflected via 505 nm dichroic mirror. Emission light was filtered using a 535/25 nm optical bandpass filter (Nikon Europe, Amsterdam, Netherlands). Images were taken at a frequency of 1 image s^−1 with an exposure time of 20–30 ms using an sCMOS camera (Andor Zyla 5.5, Oxford Instruments, Abingdon, UK) and NIS-Elements 5.2 software (Laboratory Imaging, Praha, Czech Republic).
(§4) Image Stacks were background corrected by subtracting the mean intensity of […]. For each image the mean fluorescence intensity of 1–5 ROIs consisting of several clustered cells was measured. The change in intensity of the GCamP6s fluorescence was calculated as the intensity at the end of test drug application minus the intensity before substance application, normalized to the increase of fluorescence evoked by the application of 1 µM 5-HT. Data represent 1–5 fields of view from three independent experiments

5-HT2A receptor = molecular target: T2, 5-HT2A receptor (Homo sapiens, UniProt P28223); conditions: GCamP6s fluorescence normalized to 1 µM 5-HT
T2 construct: expressed in transfected cells
T2 sequence (P28223 whole entry): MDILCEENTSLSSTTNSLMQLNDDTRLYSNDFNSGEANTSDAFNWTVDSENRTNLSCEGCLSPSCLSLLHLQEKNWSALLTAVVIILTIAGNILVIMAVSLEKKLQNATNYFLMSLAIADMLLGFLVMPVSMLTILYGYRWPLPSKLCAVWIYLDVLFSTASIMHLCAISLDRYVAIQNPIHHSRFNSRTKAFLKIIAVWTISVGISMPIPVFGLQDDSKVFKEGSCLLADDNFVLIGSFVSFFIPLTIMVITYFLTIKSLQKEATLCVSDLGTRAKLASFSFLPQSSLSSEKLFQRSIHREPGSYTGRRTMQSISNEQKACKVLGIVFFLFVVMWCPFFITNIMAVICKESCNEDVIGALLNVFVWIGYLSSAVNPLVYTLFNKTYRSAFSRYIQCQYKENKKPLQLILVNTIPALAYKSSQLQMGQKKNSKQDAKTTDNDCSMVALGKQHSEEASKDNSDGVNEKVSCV
Description: as §1, §2, §3, §4

5-HT2B receptor = 5-HT2B receptor (Homo sapiens, UniProt P41595); conditions: GCamP6s fluorescence normalized to 1 µM 5-HT
Chain of 5-HT2B receptor (P41595 whole entry): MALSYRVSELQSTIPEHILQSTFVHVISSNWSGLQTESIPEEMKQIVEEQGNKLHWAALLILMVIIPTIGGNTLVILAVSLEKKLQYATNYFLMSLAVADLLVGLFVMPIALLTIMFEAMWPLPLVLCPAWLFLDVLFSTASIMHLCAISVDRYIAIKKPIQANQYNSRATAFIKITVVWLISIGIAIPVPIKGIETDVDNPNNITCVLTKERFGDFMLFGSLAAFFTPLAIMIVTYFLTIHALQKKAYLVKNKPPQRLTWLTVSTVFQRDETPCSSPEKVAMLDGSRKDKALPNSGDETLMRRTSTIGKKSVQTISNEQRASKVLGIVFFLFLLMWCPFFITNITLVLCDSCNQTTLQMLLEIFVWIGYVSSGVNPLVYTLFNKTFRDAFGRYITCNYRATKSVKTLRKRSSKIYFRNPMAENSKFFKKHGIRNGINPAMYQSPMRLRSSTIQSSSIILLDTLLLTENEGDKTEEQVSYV
Description: as §1, §2, §3, §4

SMILES | activation of 5-HT2C receptor (5-HT2C receptor) | activation of 5-HT2A receptor (5-HT2A receptor; 1 µM) | activation of 5-HT2A receptor (5-HT2A receptor; 10 µM) | activation of 5-HT2B receptor (5-HT2B receptor; 1 µM) | activation of 5-HT2B receptor (5-HT2B receptor; 10 µM)
Cc1ccc(C(=O)[C@H](C)N)cc1 [S-4-MC, 4-methylcathinone] | neither test drug activated | neither test drug activated | displayed activity | neither test drug activated | moderate effects
CN[C@@H](C)C(=O)c1ccc(C(F)(F)F)cc1 [S-4-TFMMC, 4-trifluoromethyl-N-methylcathinone] | neither test drug activated | neither test drug activated | – | neither test drug activated | –
